Data: US9259438B2, “Methods for in vitro maturation of ovarian follicles” (priority 2008, dated 2016)

Assays:
[1] = system: primordial follicles in cultured mouse ovaries; assay: Culture of postnatal day 4 mouse ovaries with PTEN inhibitor, morphological analysis; type: cell-based; conditions: postnatal day 4 mouse ovaries cultured for 8 days, 10 μM inhibitor vs. carrier
Experimental: Postnatal day 4 mouse ovaries containing primordial follicles were cultured for 8 days with carrier (A) or PTEN inhibitor bpv (Hopic) (B).
Postnatal day 4 mouse ovaries were removed aseptically and the whole ovary was cultured in a Cell Strainer (40 μm pore size) (BD Biosciences, Stockholm, Sweden) in 1 ml alpha-MEM medium (Gibco-BRL) supplemented with 28 mM ascorbic acid and 0.3% (w/v) BSA, with or without 10 μM of the PTEN inhibitor bpV-HOpic (Dipotassium Bisperoxo(5-hydroxypyridine-2-carboxyl)oxovanadate (V), K2[VO(O2)2C6H4NO3]). The cultured ovaries were incubated in a humidified incubator (5% CO2, 37° C.) with one-third of the medium exchanged for fresh medium every day for the duration of the culture period. For fixation, the ovaries were washed once in PBS and fixed overnight in 4% paraformaldehyde, and embedded for morphological analysis.

Akt = assay: Western blot of Akt activation (p-Akt, serine 473) in oocytes after Kit ligand treatment; type: cell-based, mouse; conditions: 100 ng/ml, 2 min; PD12-14 Pten loxP/loxP; GCre+ oocytes vs. control oocytes
Experimental: Oocytes were isolated from ovaries of Pten^loxP/loxP; GCre+ and Pten^loxP/loxP mice at PD5 and PD12-14, and western blots were performed (A) Levels of p-Akt (serine 473) and total Akt in PD12-14 Pten^loxP/loxP; GCre+ and Pten^loxP/loxP oocytes. (B) Activation of Akt (p-Akt, serine 473) by Kit ligand (KL) treatment (100 ng/ml, 2 min) in PD12-14 Pten^loxP/loxP; GCre+ and Pten^loxP/loxP oocytes. Levels of Akt were used as internal controls. (C) Signaling studies in Pten^loxP/loxP; GCre+ and Pten^loxP/loxP oocytes at PD5 and PD12-14, showing levels of p-Akt (serine 473), rpS6, p-rpS6 (serine 235/6), p-mTOR (serine 2448), p-TSC2 (threonine 1462), and p-S6K (threonine 389). Levels of total Akt, mTOR, TSC2, S6K, and β-actin were used as internal controls. All experiments were repeated at least 3 times. For isolation of PD5 oocytes for western blot, 10-15 Pten^loxP/loxP; GCre+ or Pten^loxP/loxP mice were used for each lane. For isolation of PD12-14 oocytes, 3-5 Pten^loxP/loxP^P; GCre+ mice or 6-10 Pten^loxP/loxP mice were used per lane. In each lane, 30-40 μg of protein sample was loaded.
Thus, activation of the pool of primordial follicles ends up with follicle depletion. This causes POF (premature ovarian failure) in Pten^loxP/loxP; GCr+ mice. The phenotype observed in these mice resembles that of human POF (Beck-Peccoz and Persani, Orphanet. J. Rare. Dis. 2006, 1: 9). […]

| Molecule | proliferation and differentiation of flattened pre-granulosa cells into cuboidal granulosa cells [1] | survival rate of follicles in the cultured ovaries [1] | activation of Akt (p-Akt, serine 473) (Akt) |
| --- | --- | --- | --- |
| Dipotassium Bisperoxo(5-hydroxypyridine-2-carboxyl)oxovanadate (V) [bpV-HOpic] | stimulates the proliferation and differentiation of flattened pre-granulosa cells | enhances the survival rate of follicles | – |
| Kit ligand (KL): Kit ligand, activates the PI3K pathway in growing oocytes through its oocyte surface receptor Kit (protein, UniProt P20826 26-190, looked up) Soluble KIT ligand: KEICGNPVTDNVKDITKLVANLPNDYMITLNYVAGMDVLPSHCWLRDMVIQLSLSLTTLLDKFSNISEGLSNYSIIDKLGKIVDDLVLCMEENAPKNIKESPKRPETRSFTPEEFFSIFNRSIDAFKDFMVASDTSDCVLSSTLGPEKDSRVSVTKPFMLPPVAA | – | – | activated Akt to a greater extent |
